ChEMBL document CHEMBL1136074, “BR96 conjugates of highly potent anthracyclines” (Bioorg Med Chem Lett, 2003)

Legend:
L2987 [1] = experiment: In vitro inhibitory concentration of the unconjugated compound against human L2987 lung carcinoma cell line; assay type: functional, cell-based
L2987 [2] = experiment: Potency against human L2987 lung carcinoma cell line relative to that of DOX 1a; assay type: functional
[3] = Hydrolytic stability at pH 5.0 at 37 degree C; expressed as T1/2; assay type: physicochemical; conditions: buffer
[4] = Hydrolytic stability at pH 7.0 at 37 degree C; expressed as T1/2; assay type: physicochemical; conditions: buffer
L2987 [5] = experiment: (§1) Potency against human L2987 lung carcinoma cell line relative to that of BR96-1b; assay type: functional
[6] = Selectivity ratio determined as IC50 IgG-2b to that of IC50 BR96-2b; assay type: functional
L2987 [7] = experiment: In vitro inhibitory concentration of the IgG conjugate of compound against human L2987 lung carcinoma cell line; assay type: functional, cell-based
L2987 [8] = experiment: In vitro inhibitory concentration of the BR96 conjugate of compound against human L2987 lung carcinoma cell line; assay type: functional, cell-based
[9] = Selectivity ratio determined as IC50 IgG-3b to that of IC50 BR96-3b; assay type: functional
L2987 [10] = experiment: as §1; assay type: functional, cell-based
[11] = Selectivity ratio determined as IC50 IgG-1b to that of IC50 BR96-1b; assay type: functional

| IC50 (L2987 [1]) | half-life [3] | half-life [4] | IC50 (L2987 [8]) | SMILES | further results |
| --- | --- | --- | --- | --- | --- |
| 300 nM |  |  |  | COc1cccc2c1C(=O)c1c(O)c3c(c(O)c1C2=O)C[C@@](O)(C(=O)CO)C[C@@H]3O[C@H]1C[C@H](N)[C@H](O)[C@H](C)O1 [DOXORUBICIN] |  |
| 30 nM |  |  |  | COc1cccc2c1C(=O)c1c(O)c3c(c(O)c1C2=O)C[C@@](O)(C(=O)CO)C[C@@H]3OC1C[C@H](NCCCCC(OC(C)=O)OC(C)=O)C(O)[C@H](C)O1 (stereo partly specified) | Relative potency (L2987 [2]): 10 |
|  | 4.5 h | > 95 h |  | COc1cccc2c1C(=O)c1c(O)c3c(c(O)c1C2=O)C[C@@](O)(/C(CO)=N/NC(=O)CCCCCN1C(=O)CC(SCCO)C1=O)C[C@@H]3OC1C[C@H](N2CCOCC2)C(O)[C@H](C)O1 (stereo partly specified) |  |
|  |  |  | 30 nM | COc1cccc2c1C(=O)c1c(O)c3c(c(O)c1C2=O)C[C@@](O)(/C(CO)=N/NC(=O)CCCCCN1C(=O)CC(S)C1=O)C[C@@H]3OC1C[C@H](NCCCCC(OC(C)=O)OC(C)=O)C(O)[C@H](C)O1 (stereo partly specified) | Relative potency (L2987 [5]): 30; Ratio [6]: 300; IC50 (L2987 [7]): 10000 nM |
|  | 6.5 h | > 100 h |  | COc1cccc2c1C(=O)c1c(O)c3c(c(O)c1C2=O)C[C@@](O)(/C(CO)=N/NC(=O)CCCCCN1C(=O)CC(SCCO)C1=O)C[C@@H]3OC1C[C@H](NCCCCC(OC(C)=O)OC(C)=O)C(O)[C@H](C)O1 (stereo partly specified) |  |
|  | 7 h | > 120 h |  | COc1cccc2c1C(=O)c1c(O)c3c(c(O)c1C2=O)C[C@@](O)(/C(CO)=N/NC(=O)CCCCCN1C(=O)CC(SCCO)C1=O)C[C@@H]3OC1C[C@H](N)C(O)[C@H](C)O1 (stereo partly specified) |  |
|  |  |  | 200 nM | COc1cccc2c1C(=O)c1c(O)c3c(c(O)c1C2=O)C[C@@](O)(/C(CO)=N/NC(=O)CCCCCN1C(=O)CC(S)C1=O)C[C@@H]3OC1C[C@H](N2CCOCC2)C(O)[C@H](C)O1 (stereo partly specified) | Ratio [9]: 10; IC50 (L2987 [10]): 5000 nM; IC50 (L2987 [7]): 2000 nM |
|  |  |  | 1000 nM | COc1cccc2c1C(=O)c1c(O)c3c(c(O)c1C2=O)C[C@@](O)(/C(CO)=N/NC(=O)CCCCCN1C(=O)CC(S)C1=O)C[C@@H]3OC1C[C@H](N)C(O)[C@H](C)O1 (stereo partly specified) | Ratio [11]: 8 |

| SMILES | IC50 (L2987 [1]) | half-life [3] | half-life [4] | IC50 (L2987 [8]) | further results |
| --- | --- | --- | --- | --- | --- |
| COc1cccc2c1C(=O)c1c(O)c3c(c(O)c1C2=O)C[C@@](O)(C(=O)CO)C[C@@H]3OC1C[C@H](N2CCOCC2)C(O)[C@H](C)O1 (stereo partly specified) | 40 nM |  |  |  | Relative potency (L2987 [2]): 8 |
